Test results as given in ChEMBL document CHEMBL1152974, “Ionic interactions for substituted MCH1R inhibitors studied by pK(a) values” (Bioorg Med Chem Lett, 2009).

Assays:
[1] = Association constant, pKa for quinoline nitrogen; assay type: physicochemical
[2] = Association constant, pKa for aliphatic nitrogen; assay type: physicochemical

pKa [1]	pKa [2]	Structure (SMILES)
8.91		CC(=O)Nc1ccc2nc(N(C)CCO)ccc2c1
6.22	12.4	CC(=O)Nc1ccc2nc(C(C)(C)CCN(C)C)ccc2c1
6.56	11.8	CC(=O)Nc1ccc2nc(C(C)CCN(C)C)ccc2c1 (configuration not stated)
4.33	11.6	CC(=O)Nc1ccc2nc(SCCN(C)C)ccc2c1
-1.39		CC(=O)Nc1ccc2nc(F)ccc2c1
9.05	10.2	CC(=O)Nc1ccc2nc(N(C)CCN(C)C)ccc2c1
12.2	10.8	CC(=O)Nc1ccc2nc(NCCN(C)C)ccc2c1
8.98	12.7	CC(=O)Nc1ccc2nc(CCCN(C)C)ccc2c1
4.64	9.94	CC(=O)Nc1ccc2nc(OCCN(C)C)ccc2c1
5.51		CC(=O)Nc1ccc2ncccc2c1
